Data: the supplement of paper PMC11061612

What was measured:
Experiment in all cases: Bliss excess, mean over the matrix (fraction); higher = more synergy
[1] = tested on: 8305C (Thyroid Gland Carcinoma)
Procedure, shortened: (§1)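 After 24 hours at 37°C and 5% CO2 in 1536-well plates, cells in DMEM/F12 or RPMI plus 10% FBS received two-drug dose matrices for 72 hours. Viability came from CellTiter-Glo 2.0 luminescence and was scaled as inhibition, anchored at 0 by vehicle wells and at 1 by blank wells. Combination Emax is taken as the second-highest inhibition in the matrix, and Bliss excess as the observed combination effect less EA + EB − EA·EB, with EA and EB the single-agent effects.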

[2] = tested on: CAL-54 (Kidney Carcinoma)
Procedure, shortened: as §1

[3] = tested on: CAPAN-1 (Pancreatic Carcinoma)
Procedure, shortened: as §1

COLO-829 (Melanoma) = tested on: COLO-829 (Melanoma)
Procedure, shortened: as §1

[4] = tested on: HARA (Squamous Cell Lung Carcinoma)
Procedure, shortened: as §1

[5] = tested on: HDLM-2 (Hodgkin's Lymphoma)
Procedure, shortened: as §1

HMV-II (Melanoma) = tested on: HMV-II (Melanoma)
Procedure, shortened: as §1

[6] = tested on: HO-1-u-1 (Oral Cavity Carcinoma)
Procedure, shortened: as §1

[7] = tested on: Hs-633T (Other Solid Carcinomas)
Procedure, shortened: as §1

[8] = tested on: K5 (Thyroid Gland Carcinoma)
Procedure, shortened: as §1

[9] = tested on: KARPAS-231 (B-Cell Non-Hodgkin's Lymphoma)
Procedure, shortened: as §1

[10] = tested on: MDA-MB-468 (Breast Carcinoma)
Procedure, shortened: as §1

Mewo (Melanoma) = tested on: Mewo (Melanoma)
Procedure, shortened: as §1

NCI-H2461 (Mesothelioma) = tested on: NCI-H2461 (Mesothelioma)
Procedure, shortened: as §1

[11] = tested on: NCI-H69 (Small Cell Lung Carcinoma)
Procedure, shortened: as §1

[12] = tested on: RPMI-6666 (Non-Cancerous)
Procedure, shortened: as §1

[13] = tested on: SK-OV-3 (Ovarian Carcinoma)
Procedure, shortened: as §1

[14] = tested on: SU-DHL-6 (B-Cell Non-Hodgkin's Lymphoma)
Procedure, shortened: as §1

[15] = tested on: SUP-T1 (T-Lymphoblastic Leukemia)
Procedure, shortened: as §1

[16] = tested on: SW1116 (Colorectal Carcinoma)
Procedure, shortened: as §1

Row | Structure (SMILES) | Bliss excess [1] | Bliss excess [2] | Bliss excess [3] | Bliss excess (COLO-829 (Melanoma)) | Bliss excess [4] | Bliss excess [5] | Bliss excess (HMV-II (Melanoma)) | Bliss excess [6] | Bliss excess [7] | Bliss excess [8] | Bliss excess [9] | Bliss excess [10] | Bliss excess (Mewo (Melanoma)) | Bliss excess (NCI-H2461 (Mesothelioma)) | Bliss excess [11] | Bliss excess [12] | Bliss excess [13] | Bliss excess [14] | Bliss excess [15] | Bliss excess [16]
1 | Cc1c2c(nn1C)CSCc1cc(n(C)n1)CSc1cc(c3ccccc3c1)OCCCc1c(C(=O)O)n(C)c3c-2c(Cl)ccc13 [AZD5991] + C[C@@H](Nc1cc(F)cc(F)c1)c1cc(C(=O)N(C)C)cc2c(=O)cc(N3CCOCC3)oc12 [AZD8186] (first compound max 1 µM, 7x7, partner max 3 µM) | -0.0844 | -0.004 | -0.0595 | -0.0758 | -0.0036 | -0.0351 | -0.0401 | -0.014 | 0.0127 | -0.0231 | -0.0107 | 0.0092 | -0.0411 | -0.0062 | -0.0601 | -0.0005 | -0.0501 | -0.002 | -0.0003 | 0.0046
2 | CN(CCO)CC[C@H](CSc1ccccc1)Nc1ccc(S(=O)(=O)NC(=O)c2ccc(N3CCC([C@@H](O)c4ccccc4-c4ccc(Cl)cc4)CC3)cc2)cc1S(=O)(=O)C(F)(F)F [AZD4320] + CCN(CCO)CCCOc1ccc2c(Nc3cc(CC(=O)Nc4cccc(F)c4)[nH]n3)ncnc2c1 [AZD2811] (first compound max 1 µM, 7x7, partner max 1 µM) | 0.0076 | -0.0406 | -0.0309 | -0.0465 | 0.106 | 0.0781 | -0.0357 | 0.107 | -0.0212 | -0.0283 | 0.0493 | 0.0461 | 0.0053 | -0.0195 | 0.035 | 0.17 | -0.0522 | 0.0635 | 0.0933 | -0.0299
3 | NC1(C(=O)N[C@@H](CCO)c2ccc(Cl)cc2)CCN(c2ncnc3[nH]ccc23)CC1 [Capivasertib] + CC(=O)c1c(C)c2cnc(Nc3ccc(N4CCNCC4)cn3)nc2n(C2CCCC2)c1=O [Palbociclib] (first compound max 10 µM, 7x7, partner max 10 µM) | -0.0461 | -0.0279 | -0.0163 | -0.0549 | 0.0388 | -0.0222 | -0.0138 | -0.0234 | 0.0179 | -0.0106 | -0.044 | -0.0075 | -0.0588 | -0.0609 | -0.0632 | -0.0423 | -0.0463 | 0.0059 | -0.0239 | -0.0297
4 | COc1cc2c(cc1OCCCCCOc1cc3c(cc1OC)C(=O)N1C=C(C)C[C@H]1C=N3)N=C[C@@H]1CC(C)=CN1C2=O [SG3199] + O=C(c1cc(Cc2n[nH]c(=O)c3ccccc23)ccc1F)N1CCN(C(=O)C2CC2)CC1 [Olaparib] (first compound max 0.001 µM, 7x7, partner max 10 µM) | -0.0854 | -0.0488 | -0.0802 | -0.0476 | -0.0066 | -0.0444 | -0.0524 | -0.0205 | -0.0312 | -0.0105 | 0.0289 | -0.0971 | -0.0489 | -0.0652 | -0.0136 | 0.0028 | -0.0477 | 0.0075 | -0.0478 | -0.0356
5 | CC(=O)Nc1cccc(-n2c(=O)n(C3CC3)c(=O)c3c(Nc4ccc(I)cc4F)n(C)c(=O)c(C)c32)c1 [Trametinib] + Cc1nc(-c2cn3c(n2)-c2ccc(-c4cnn(C(C)(C)C(N)=O)c4)cc2OCC3)n(C(C)C)n1 [Taselisib] (first compound max 1 µM, 7x7, partner max 10 µM) | 0.0656 | 0.0303 | 0.129 | 0.234 | 0.162 | 0.0406 | 0.0405 | 0.0754 | 0.191 | 0.0183 | -0.0605 | -0.0919 | 0.0975 | 0.0312 | -0.0257 | 0.0351 | 0.0582 | 0.0238 | 0.0363 | 0.139
6 | Cc1c2c(nn1C)CSCc1cc(n(C)n1)CSc1cc(c3ccccc3c1)OCCCc1c(C(=O)O)n(C)c3c-2c(Cl)ccc13 [AZD5991] + C1CN(CCC1(C(=O)N[C@@H](CCO)C2=CC=C(C=C2)Cl)N)C3=NC=NC4=C3C=CN4 [Capivasertib] (first compound max 1 µM, 7x7, partner max 3 µM) | 0.0008 | 0.0428 | -0.0318 | -0.0212 | -0.0041 | 0.0369 | -0.0307 | 0.0242 | 0.0123 | -0.021 | -0.0402 | 0.0256 | -0.0536 | -0.0345 | -0.026 | 0.0216 | -0.0065 | -0.0035 | -0.0218 | -0.0238
7 | Cc1cc2ncnn2cc1Nc1ncc2c(n1)n(C1CCOCC1)c(=O)n2C [AZD7648] + C[C@@H]1COCCN1C2=NC(=NC(=C2)C3(CC3)[S@](=N)(=O)C)C4=C5C=CNC5=NC=C4 [AZD6738] (first compound max 10 µM, 7x7, partner max 10 µM) | 0.02 | -0.0183 | 0.0322 | -0.0088 | -0.0073 | -0.0357 | 0.0134 | -0.0014 | -0.0138 | 0.0129 | 0.0018 | -0.0063 | -0.0217 | -0.0188 | -0.0348 | -0.0048 | 0.0411 | -0.0598 | 0.0052 | 0.0285
8 | CC(=O)c1c(C)c2cnc(Nc3ccc(N4CCNCC4)cn3)nc2n(C2CCCC2)c1=O [Palbociclib] + CC1(C)CCC(CN2CCN(c3ccc(C(=O)NS(=O)(=O)c4ccc(NCC5CCOCC5)c([N+](=O)[O-])c4)c(Oc4cnc5[nH]ccc5c4)c3)CC2)=C(c2ccc(Cl)cc2)C1 [Venetoclax] (first compound max 10 µM, 7x7, partner max 1 µM) | -0.0306 | -0.008 | -0.019 | 0.0199 | 0.0119 | 0.0073 | -0.0895 | -0.0121 | -0.0251 | 0.0216 | -0.103 | -0.0241 | -0.0235 | -0.0712 | -0.0624 | -0.0674 | -0.0531 | 0.0694 | -0.0942 | -0.0435
9 | CC1(C)CCC(CN2CCN(c3ccc(C(=O)NS(=O)(=O)c4ccc(NCC5CCOCC5)c([N+](=O)[O-])c4)c(Oc4cnc5[nH]ccc5c4)c3)CC2)=C(c2ccc(Cl)cc2)C1 [Venetoclax] + C[C@@H](Nc1cc(F)cc(F)c1)c1cc(C(=O)N(C)C)cc2c(=O)cc(N3CCOCC3)oc12 [AZD8186] (first compound max 1 µM, 7x7, partner max 3 µM) | -0.0423 | 0.0021 | -0.0594 | -0.0019 | 0.0144 | 0.122 | 0.0093 | -0.0183 | -0.017 | -0.111 | -0.184 | -0.0688 | 0.0083 | 0.0092 | 0.0128 | 0.0617 | -0.0984 | 0.0547 | -0.0402 | -0.0358
10 | Cc1c2c(nn1C)CSCc1cc(n(C)n1)CSc1cc(c3ccccc3c1)OCCCc1c(C(=O)O)n(C)c3c-2c(Cl)ccc13 [AZD5991] + CC1(C)CCC(CN2CCN(c3ccc(C(=O)NS(=O)(=O)c4ccc(NCC5CCOCC5)c([N+](=O)[O-])c4)c(Oc4cnc5[nH]ccc5c4)c3)CC2)=C(c2ccc(Cl)cc2)C1 [Venetoclax] (first compound max 1 µM, 7x7, partner max 1 µM) | -0.0189 | -0.0151 | -0.0459 | -0.0122 | -0.0091 | 0.162 | -0.0257 | -0.0046 | -0.016 | -0.0325 | -0.0232 | 0.0812 | 0.0377 | -0.0237 | -0.0383 | 0.233 | -0.0153 | 0.0744 | -0.0207 | -0.0215
11 | CN(C)CCCOc1ccc(-c2ccc3ncc4c(c3c2)n(C2CCOCC2)c(=O)n4C)cn1 [AZD0156] + CCN(CCO)CCCOc1ccc2c(Nc3cc(CC(=O)Nc4cccc(F)c4)[nH]n3)ncnc2c1 [AZD2811] (first compound max 1 µM, 7x7, partner max 1 µM) | -0.0794 | -0.0129 | -0.0635 | -0.0587 | 0.0136 | -0.0208 | -0.0133 | 0.0299 | -0.0139 | -0.0334 | -0.0205 | -0.0326 | -0.0477 | -0.0293 | 0.0012 | 0.0312 | -0.0533 | -0.0026 | 0.0321 | -0.0339
12 | CC(=O)c1c(C)c2cnc(Nc3ccc(N4CCNCC4)cn3)nc2n(C2CCCC2)c1=O [Palbociclib] + Cc1c2c(nn1C)CSCc1cc(n(C)n1)CSc1cc(c3ccccc3c1)OCCCc1c(C(=O)O)n(C)c3c-2c(Cl)ccc13 [AZD5991] (first compound max 10 µM, 7x7, partner max 1 µM) | -0.0706 | -0.0781 | -0.033 | -0.0232 | 0.021 | -0.072 | -0.0185 | -0.0069 | 0.004 | -0.046 | -0.0835 | 0.0078 | -0.0291 | -0.056 | -0.0378 | -0.0533 | -0.0569 | 0.0709 | 0.0394 | -0.025
13 | C=CCn1c(=O)c2cnc(Nc3ccc(N4CCN(C)CC4)cc3)nc2n1-c1cccc(C(C)(C)O)n1 [AZD1775] + C[C@@H]1COCCN1C2=NC(=NC(=C2)C3(CC3)[S@](=N)(=O)C)C4=C5C=CNC5=NC=C4 [AZD6738] (first compound max 1 µM, partner max 10 µM) | -0.122 | -0.0377 | -0.0951 | -0.0194 | -0.0239 | -0.0511 | -0.0327 | 0.0263 | 0.0309 | -0.0453 | 0.0545 | 0.0344 | 0.026 | -0.081 | 0.0962 | -0.0165 | -0.0067 | 0.0458 | -0.0352 | -0.0075
14 | Cc1nc(Nc2ncc(C(=O)Nc3c(C)cccc3Cl)s2)cc(N2CCN(CCO)CC2)n1 [Dasatinib] + CC(=O)Nc1cccc(-n2c(=O)n(C3CC3)c(=O)c3c(Nc4ccc(I)cc4F)n(C)c(=O)c(C)c32)c1 [Trametinib] (first compound max 2 µM, 7x7, partner max 1 µM) | 0.0279 | -0.0031 | 0.0044 | -0.159 | -0.0523 | -0.0467 | -0.136 | -0.0219 | 0.0302 | 0.0175 | -0.0267 | -0.0521 | 0.0254 | -0.0384 | -0.048 | 0.0193 | -0.075 | 0.0272 | -0.0967 | 0.0459
